In patent publication US8492383B2 (Jewish General Hospital, priority 2002, dated 2013):
Where “and” joins values, the source holds several entries; their conditions need not be identical. Identical values can stand only once.

What was measured:
I83 cell line = conditions: drug alone, MTT 72 hours
[1] = tested on: lymphocytes from CLL patients; assay: MTT cytotoxic assay, lymphocytes from CLL patients; type: cell-based, human; conditions: drug alone

Structure (SMILES): O=C(O)CCCc1ccc(N(CCCl)CCCl)cc1 [CLB, chlorambucil]
- LD50 (I83 cell line): 40.66 µM and 40.66 ± 2.80 µM
- LD50 ([1]; CLL patient T^1 (previously treated with CLB)): 9.29 µM
- LD50 ([1]; CLL patient T^2 (previously treated with CLB)): 23.1 µM
- LD50 ([1]; CLL patient T^3 (previously treated with CLB)): 5.56 µM
- LD50 ([1]; CLL patient T^4 (previously treated with CLB)): 79.7 µM
- LD50 ([1]; CLL patient T^5 (previously treated with CLB)): 49.2 µM
- LD50 ([1]; CLL patient U^1 (untreated)): 14.6 µM
- LD50 ([1]; CLL patient U^2 (untreated)): 28.49 µM
- LD50 ([1]; CLL patient U^3 (untreated)): 20.02 µM
- LD50 ([1]; CLL patient U^4 (untreated)): 54.2 µM
- LD50 ([1]; CLL patient U^5 (untreated)): 12.27 µM
- LD50 ([1]; CLL patient U^6 (untreated)): 18.08 µM
- LD50 ([1]; CLL patient U^7 (untreated)): 7.84 µM
